{"source": "patent EP1133986A1", "about": "“Use of deramciclane for the treatment of anxiety and depression” (priority 2000, dated 2001)", "key": {"serotonin 5HT2A-receptor [1]": {"biological_target": "T1, serotonin 5HT2A-receptor (Homo sapiens, UniProt P28223)", "T1 sequence (P28223 whole entry)": "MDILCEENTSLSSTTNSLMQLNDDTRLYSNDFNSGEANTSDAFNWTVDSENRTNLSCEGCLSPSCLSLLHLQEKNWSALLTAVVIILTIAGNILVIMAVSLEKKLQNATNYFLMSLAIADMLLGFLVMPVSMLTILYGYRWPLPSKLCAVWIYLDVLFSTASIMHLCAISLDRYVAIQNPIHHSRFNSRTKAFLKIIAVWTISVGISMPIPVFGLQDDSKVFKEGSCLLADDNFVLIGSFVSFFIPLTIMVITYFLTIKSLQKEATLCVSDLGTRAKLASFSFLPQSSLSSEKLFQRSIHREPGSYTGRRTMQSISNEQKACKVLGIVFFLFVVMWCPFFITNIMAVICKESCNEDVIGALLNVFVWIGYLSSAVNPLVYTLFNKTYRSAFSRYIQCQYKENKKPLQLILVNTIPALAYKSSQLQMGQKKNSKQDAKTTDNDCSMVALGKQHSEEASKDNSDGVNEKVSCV", "parameters": "serotonin 5-HT2A-receptors in frontal cortex of healthy male volunteers; from tissue; host or cells: frontal cortex of living healthy male volunteers", "conditions": "humans, brain 5HT2A-receptor, single oral dose; cited from earlier work"}, "[2]": {"system": "anxiety, specifically GAD", "assay": "randomised placebo-controlled double-blind study in GAD, Hamilton Anxiety Scale (HAM-A)", "type": "in vivo, humans", "conditions": "GAD patients", "description": "(§1) The efficacy of deramciclane in the treatment of anxiety, specifically GAD, was studied in a randomised placebo-controlled double-blind study. In addition, the dose-dependency of the effects of deramciclane was evaluated. Total of 208 patients were included in the study. The subjects were randomly assigned to four parallel groups to receive one tablet twice daily (b.i.d) of a placebo, 5mg (=10mg/day), 15mg (=30mg/day), or 30mg (=60mg/day) deramciclane. The study started with a one-week placebo run-in period, followed by an eight-week placebo-controlled active treatment and a two-week placebo washout period.\nThe efficacy of deramciclane on anxiety symptoms was studied by the efficacy variable Hamilton Anxiety Scale (HAM-A), analyzing the change in the score and using responder criterion (at least 50 % reduction in HAM-A total score)."}, "serotonin 5HT2A-receptor [3]": {"biological_target": "T1, serotonin 5HT2A-receptor", "conditions": "cited from earlier work"}, "[4]": {"conditions": "human, cited from earlier work"}, "mice [5]": {"system": "mice", "conditions": "single subcutaneous administration, 3 mg/kg; cited from earlier work"}, "mice [6]": {"system": "mice", "conditions": "oral doses 48-160 mg/kg; cited from earlier work"}, "depressive symptoms": {"system": "depressive symptoms", "assay": "randomised placebo-controlled double-blind study in GAD, Montgomery Åsberg Depression Rating Scale (MADRS)", "type": "in vivo, humans", "conditions": "GAD patients", "description": "as §1\nThe efficacy of deramciclane on depressive symptoms was studied using Montgomery Åsberg Depression Rating Scale (MADRS)."}, "rats [7]": {"system": "rats", "conditions": "oral doses of 25 and 100 mg/kg; cited from earlier work"}, "[8]": {"conditions": "humans, cited from earlier work; for Cmin and Cmax range: repeated administration for one week"}, "rats [9]": {"system": "rats", "conditions": "cited from earlier work"}, "[10]": {"conditions": "rat, cited from earlier work"}, "rats [11]": {"system": "rats", "conditions": "single intraperitoneal administration; cited from earlier work"}, "[12]": {"conditions": "rats, 3 mg/kg, cited from earlier work"}, "[13]": {"biological_target": "T2, serotonin 5-HT2C-receptor (Homo sapiens, UniProt P28335)", "T2 sequence (P28335 33-458)": "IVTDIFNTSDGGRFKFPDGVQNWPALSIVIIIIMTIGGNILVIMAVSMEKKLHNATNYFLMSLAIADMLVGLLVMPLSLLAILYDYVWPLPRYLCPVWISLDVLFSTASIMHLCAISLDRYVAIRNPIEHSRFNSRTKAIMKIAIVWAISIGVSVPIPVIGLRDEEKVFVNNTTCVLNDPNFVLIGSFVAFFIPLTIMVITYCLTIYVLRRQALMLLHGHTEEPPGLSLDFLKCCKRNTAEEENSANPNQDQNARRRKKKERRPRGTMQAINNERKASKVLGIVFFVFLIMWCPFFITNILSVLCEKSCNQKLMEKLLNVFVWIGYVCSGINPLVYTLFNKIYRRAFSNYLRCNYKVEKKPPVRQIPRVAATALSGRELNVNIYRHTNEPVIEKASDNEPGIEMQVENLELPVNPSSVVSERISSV", "conditions": "cited from earlier work"}, "[14]": {"parameters": "species or system human", "conditions": "in vivo", "description": "A comparative pharmacokinetic study of orally administered deramciclane in rats, dogs, rabbits and humans (Klebovich et al Pharm. Pharmacol. Commun., 4: 129-136, 1998), it was shown that the plasma concentration curves obtained after the administration of a single 3mg/kg oral dose of deramciclane to rats (dogs, rabbits) and human show considerable species specific differences. […] Thus a 40-times lower oral dose of deramciclane could be used in man to result in the same maximal plasma concentration as in rat. […] Thus over 300 times lower oral doses should result in equal exposure in humans than in rats. Basing only the Cmax difference between rat and man, it can be predicted that considerably lower doss should be centrally acitive in humans than in rat. The minimum oral effective anti-anxiety dose in rats was 1 mg/kg (1-30mg/kg the full range; see above), i.e. in a 70 kg-man this would mean 70 mg dose. […] This would result in 70 mg/40= 1.75 mg (i.e. 0.025 mg/kg) as an effective dose in man."}, "rat": {"system": "rat", "conditions": "intraperitoneally 1 or 10 mg/kg, 8 times, twice a day, before the test; cited from earlier work"}, "rats [15]": {"system": "rats", "conditions": "cited from earlier work", "remark": "listed apart in the source"}, "[16]": {"conditions": "single oral administration, 3 mg/kg"}}, "note": "Read-outs that look alike come from different tables or passages of the source."}
{"smiles": "CN(C)CCO[C@]1(c2ccccc2)C[C@H]2CC[C@]1(C)C2(C)C", "note": "[deramciclane, (lR,2S,4R)-(-)-2-[N,N-(dimethylaminoethoxy)]-2-phenyl-1,7,7-trimethyl-bicyclo[2.2.1]heptane]", "values": [{"measurement": "plasma concentration at 50% receptor occupancy", "setting": "serotonin 5HT2A-receptor [1]", "result": "~21", "unit": "ng/mL"}, {"measurement": "plasma concentration at 90% receptor occupancy", "setting": "serotonin 5HT2A-receptor [1]", "result": "about 70 ng/ml"}, {"measurement": "HAM-A score compared with placebo", "setting": "[2]; 5 mg b.i.d, eight weeks", "result": "No difference"}, {"measurement": "responders (at least 50 % reduction in HAM-A scale)", "setting": "[2]; 5 mg b.i.d. (n=31), placebo 54 %", "result": 57, "unit": "%"}, {"measurement": "decrease of HAM-A score from baseline", "setting": "[2]; 15 mg b.i.d, eight weeks, p=0.006 versus placebo", "result": 14.5, "unit": "points"}, {"measurement": "responders (at least 50 % reduction in HAM-A scale)", "setting": "[2]; 15 mg b.i.d. (n=39), p=0.020 versus placebo", "result": 76, "unit": "%"}, {"measurement": "responders (at least 50 % reduction in HAM-A scale)", "setting": "[2]; 30 mg b.i.d. (n=37)", "result": 70, "unit": "%"}, {"measurement": "decrease of HAM-A score from baseline", "setting": "[2]; 30 mg b.i.d., eight weeks, not significant versus placebo", "result": 14.5, "unit": "points"}, {"measurement": "antagonism of the receptor", "setting": "serotonin 5HT2A-receptor [3]", "result": "potent antagonist"}, {"measurement": "binding affinity", "setting": "serotonin 5HT2A-receptor [3]; in vitro", "result": "high affinity"}, {"measurement": "peak plasma concentration (Cmax)", "setting": "[4]; single 3 mg/kg oral dose", "result": 217.5, "unit": "ng/mL"}, {"measurement": "mean AUC 0 - ∞", "setting": "[4]; [16]", "result": 3737.8, "unit": "ng·h/mL"}, {"measurement": "activity in two compartment test", "setting": "mice [5]", "result": "active"}, {"measurement": "effect on tetrabenazine-induced ptosis", "setting": "mice [6]", "result": "negligible"}, {"measurement": "effect on MADRS scores", "setting": "depressive symptoms; 5 mg b.i.d", "result": "ineffective"}, {"measurement": "decrease of MADRS scores", "setting": "depressive symptoms; 15mg b.i.d, p= 0.028", "result": 7.7, "unit": "points"}, {"measurement": "decrease of MADRS scores", "setting": "depressive symptoms; 30 mg b.i.d, p= 0.016", "result": 8.0, "unit": "points"}, {"measurement": "effect in forced swimming test", "setting": "rats [7]", "result": "clearly ineffective"}, {"measurement": "Cmin and Cmax range", "setting": "[8]; 20 mg daily dose", "result": "16 to 33", "unit": "ng/mL"}, {"measurement": "Cmin and Cmax range", "setting": "[8]; 60 mg daily dose", "result": "48 to 91", "unit": "ng/mL"}, {"measurement": "Cmax", "setting": "[8]; single oral administration of 20 mg", "result": "24 ± 9.4", "unit": "ng/mL"}, {"measurement": "Cmax", "setting": "[8]; single oral administration of 30 mg", "result": "27 ± 6.1", "unit": "ng/mL"}, {"measurement": "caerulein-induced decrease in exploratory behavior", "setting": "rats [9]; intraperitoneal dose of 0.5 mg/kg", "result": "able to attenuate"}, {"measurement": "effect in elevated plus maze test", "setting": "rats [9]; rats, single intraperitoneal doses 0.1 mg/kg - 5 mg/kg", "result": "totally ineffective"}, {"measurement": "peak plasma concentration (Cmax)", "setting": "[10]; single 3 mg/kg oral dose", "result": 5.4, "unit": "ng/mL"}, {"measurement": "mean AUC 0 - ∞", "setting": "[10]; [16]", "result": 11.9, "unit": "ng·h/mL"}, {"measurement": "minimum effective dose (social interaction time)", "setting": "rats [11]", "result": 0.7, "unit": "mg/kg"}, {"measurement": "radioactivity in several organs including blood and the brain", "setting": "[12]; intravenous administration", "result": "high radioactivity"}, {"measurement": "radioactivity in organs, especially in the brain", "setting": "[12]; oral administration, compared with intravenous", "result": "substantially lower"}, {"measurement": "antagonism of the receptor", "setting": "[13]", "result": "potent antagonist"}, {"measurement": "binding affinity", "setting": "[13]; in vitro", "result": "high affinity"}, {"measurement": "factor by which oral dose in man can be lower for the same maximal plasma concentration as in rat", "setting": "[14]", "result": 40, "unit": "times"}, {"measurement": "factor by which oral doses in humans can be lower for equal exposure as in rats", "setting": "[14]", "result": "over 300 times"}, {"measurement": "helpless behaviour induced by inescapable electric foot shocks", "setting": "rat", "result": "dose dependently attenuated"}, {"measurement": "minimum oral effective anti-anxiety dose", "setting": "rats [15]; oral", "result": 1, "unit": "mg/kg"}, {"measurement": "activity in punished drinking test", "setting": "rats [15]; single oral administration, 1 mg/kg and 10 mg/kg", "result": "active"}]}
